Here are results for seven compounds from ChEMBL document CHEMBL1151328, “Novel cytotoxic acylated oligorhamnosides from Mezzettia leptopoda” (1998).

Values after ≈ are worked out from the molar mass of the structure shown. Active and inactive are the calls of the source. The calls are words filed in the database; no cut-off is given here.

Experiment [1] in a line: Cytotoxicity against human BC1 cells. It counts as functional. Conditions: read-out: ED50 (the source's name).
The test system of experiment [2] is Lu1. As to the kind of experiment: Cytotoxicity against human Lu1 cells. The format is functional. Conditions: read-out: ED50 (the source's name).
The subject of experiment [3] is Col2. As to the kind of experiment: Cytotoxicity against human Col2 cells. The format is functional. Conditions: read-out: ED50 (the source's name).
The test system of experiment [4] is KB. As to the kind of experiment: Cytotoxicity against human KB cells. The format is functional. Conditions: read-out: ED50 (the source's name).
In experiment [5] the test system is KB. As to the kind of experiment: Cytotoxicity against human drug-resistant KB cells in presence of 1 ug/mL vinblastine. The format is functional. The settings on record: read-out: ED50 (the source's name).
The test system of experiment [6] is KB. As to the kind of experiment: Cytotoxicity against human drug-resistant KB cells in absence of vinblastine. It counts as functional. The settings on record: read-out: ED50 (the source's name).
Experiment [7] relates to LNCaP. As to the kind of experiment: Cytotoxicity against human LNCAP cells. It counts as functional. The settings on record: read-out: ED50 (the source's name).
Experiment [8] deals with ASK. As to the kind of experiment: Antimitotic activity in rat ASK cells at 100 ug/mL. It counts as functional, cell-based.

On to `CCCCCCCCO[C@@H]1O[C@@H](C)[C@H](OC(=O)CCCCC)[C@@H](O[C@@H]2O[C@@H](C)[C@H](OC(C)=O)[C@@H](O[C@@H]3O[C@@H](C)[C@H](OC(C)=O)[C@@H](O)[C@H]3OC(C)=O)[C@H]2OC(C)=O)[C@H]1O` [MEZZETTIASIDE 2], for which the EC50 in experiment [1] is over 20 µg/mL; in experiment [2], 8.6 µg/mL (≈ 10.3 µM); in experiment [3], 4.3 µg/mL (≈ 5.15 µM); in experiment [4], 6.2 µg/mL (≈ 7.43 µM); in experiment [5] it was over 20 µg/mL; in experiment [6], over 20 µg/mL. In experiment [7], the EC50 was over 20 µg/mL. For the same compound, the result in experiment [8] was inactive.
Turning to `CCCCCCCCO[C@@H]1O[C@@H](C)[C@H](OC(=O)CCCCC)[C@@H](O[C@@H]2O[C@@H](C)[C@H](OC(C)=O)[C@@H](O[C@@H]3O[C@@H](C)[C@H](OC(C)=O)[C@@H](OC(C)=O)[C@H]3O)[C@H]2OC(C)=O)[C@H]1O` [MEZZETTIASIDE 3], the EC50 in experiment [1] is over 20 µg/mL; in experiment [2], 11.8 µg/mL (≈ 14.1 µM); in experiment [3], 4.9 µg/mL (≈ 5.87 µM); in experiment [4], 14.3 µg/mL (≈ 17.1 µM); in experiment [5], over 20 µg/mL; in experiment [6], over 20 µg/mL. Also, the EC50 in experiment [7] was over 20 µg/mL. In experiment [8], the outcome was inactive.
As to `CCCCCCCCO[C@@H]1O[C@@H](C)[C@H](OC(=O)CCCCC)[C@@H](O[C@@H]2O[C@@H](C)[C@H](OC(C)=O)[C@@H](O[C@@H]3O[C@@H](C)[C@H](OC(C)=O)[C@@H](O)[C@H]3O)[C@H]2OC(C)=O)[C@H]1O` [MEZZETTIASIDE 4], the EC50 in experiment [1] is over 20 µg/mL; in experiment [2], 19.4 µg/mL (≈ 24.5 µM); in experiment [3], 6.2 µg/mL (≈ 7.82 µM); in experiment [4] it was 15.4 µg/mL (≈ 19.4 µM); in experiment [5], over 20 µg/mL; in experiment [6], over 20 µg/mL. In experiment [7], the EC50 is over 20 µg/mL. Besides, the result in experiment [8] was inactive.
As to `CCCCCCCCO[C@@H]1O[C@@H](C)[C@H](OC(=O)CCCCC)[C@@H](O[C@@H]2O[C@@H](C)[C@H](OC(C)=O)[C@@H](O[C@@H]3O[C@@H](C)[C@H](O)[C@@H](O)[C@H]3OC(C)=O)[C@H]2OC(C)=O)[C@H]1O` [MEZZETTIASIDE 8], the EC50 is over 20 µg/mL in experiment [1]; 19.7 µg/mL (≈ 24.8 µM) in experiment [2]; 8.2 µg/mL (≈ 10.3 µM) in experiment [3]; over 20 µg/mL in experiment [4]; over 20 µg/mL in experiment [5]; over 20 µg/mL in experiment [6]. The EC50 in experiment [7] was over 20 µg/mL. Further, the outcome in experiment [8] was inactive.
Take `CCCCCCCCO[C@@H]1O[C@@H](C)[C@H](OC(=O)CCCCC)[C@@H](O[C@@H]2O[C@@H](C)[C@H](O)[C@@H](OC(C)=O)[C@H]2OC(C)=O)[C@H]1O` [MEZZETTIASIDE 9]: the EC50 is over 20 µg/mL in experiment [1]; 5.4 µg/mL (≈ 8.93 µM) in experiment [2]; over 20 µg/mL in experiment [3]; 11.3 µg/mL (≈ 18.7 µM) in experiment [4]; over 20 µg/mL in experiment [5]; over 20 µg/mL in experiment [6]. The EC50 in experiment [7] is over 20 µg/mL. In addition, the result in experiment [8] was inactive.
On to `CCCCCCCCO[C@@H]1O[C@@H](C)[C@H](OC(=O)CCCCC)[C@@H](O[C@@H]2O[C@@H](C)[C@H](OC(C)=O)[C@@H](OC(C)=O)[C@H]2OC(C)=O)[C@H]1O` [MEZZETTIASIDE 11], for which the EC50 in experiment [1] was over 20 µg/mL; in experiment [2] it was 6.1 µg/mL (≈ 9.43 µM); in experiment [3] it was 9 µg/mL (≈ 13.9 µM); in experiment [4], 12.7 µg/mL (≈ 19.6 µM); in experiment [5] it was 5.6 µg/mL; in experiment [6], over 20 µg/mL. Also, in experiment [7], the EC50 is over 20 µg/mL. The result in experiment [8] was inactive.
`CCCCCCCCO[C@@H]1O[C@@H](C)[C@H](OC(=O)CCCCC)[C@@H](O[C@@H]2O[C@@H](C)[C@H](OC(C)=O)[C@@H](O)[C@H]2OC(C)=O)[C@H]1O` [MEZZETTIASIDEIDE 10]: the EC50 in experiment [1], in experiment [2], in experiment [3], in experiment [4], in experiment [5] and in experiment [6] was over 20 µg/mL in each case. In addition, in experiment [7], the EC50 is over 20 µg/mL. In experiment [8], the outcome was inactive.
